Laboratory results: patent US9821173B2, “Anti-cancer agents and methods of use” (Case Western Reserve University, priority 2013, dated 2017)
Several values for one entry are separate records, joined by “and”; a condition that tells them apart may be missing. Equal entries are not always repeated.

Columns and labels:
HCT-116 = test: Cell proliferation assay (cell-titer blue); type: cell-based; conditions: cell viability, up to 48 hours, read-out: IC50 HCT116
Method: (§1) HeLa, MCF-7, HCT-116, and CEM-C7 were obtained from the American Type Culture Collection (Manassas, Va., USA). All adherent cell lines were maintained in Dulbecco's modified Eagle's medium (Mediatech) with 100 U/ml penicillin (Invitrogen), 100 μg/ml streptomycin (Invitrogen), 0.25 μg/ml amphotericin B (Invitrogen), and 10% fetal bovine serum (USA Scientific) and incubated at 37° C. with 5% CO2. CEM cells were maintained in RPMI-1640 media supplemented with 100 U/ml penicillin, 100 μg/ml streptomycin, 0.25 μg/ml amphotericin B, and 10% fetal bovine serum and incubated at 37° C. with […].
(§2) Cells were plated at a density of 7,000-13,000/well in 200 μl of media overnight in a 96-well plate. Each (phosphine)gold(I)-indole was added to wells in a dose-dependent manner (0.01-100 μM). Cells were treated with compounds for variable time periods (8-48 hours). With adherent cell lines, medium was removed from the wells and then 100 μl of fresh medium was added into each well followed by the addition of 20 μl of cell titer-blue reagent (Promega). Cells were incubated with reagent for 1-4 hrs and the optical density of samples was read at 560 nm using a microplate reader. The background absorbance of dye with media was subtracted from each sample. Cell viability was then normalized against cells treated with DMSO. IC50 values were obtained using a fit of the data to Equation 1: Y=100%/[1+(IC50/Inhibitor)] (1)
(§3) where y is the fraction of viable cells, IC50 is the concentration of inhibitor that inhibits 50% cell growth, and Inhibitor is the concentration of compound tested.
(§4) The cellular effects of these (phosphine)gold(I) indoles were tested against several cancer cell lines including HeLa (cervical cancer), MCF-7 (breast cancer), HCT-116 (colon cancer), and CEM-C7 (leukemia). The dose-dependency of each modified indole on cell viability was assessed using a cell-titer blue assay as previously described. In these experiments, cells were exposed to variable concentrations of each (phosphine)gold(I) indole (0.01-100 μM) for up to 48 hours and then assessed for viability.

HeLa = test: Cell proliferation assay (cell-titer blue); type: cell-based; conditions: cell viability, cell-titer blue, up to 48 hours
Method: as §1, §2, §3, §4

MCF-7 = test: Cell proliferation assay (cell-titer blue); type: cell-based; conditions: cell viability, up to 48 hours
Method: as §1, §2, §3, §4

CEM-C7 = test: Cell proliferation / cytotoxicity assay; type: cell-based; conditions: cell viability, cell-titer blue, up to 48 hours
Method: as §1, §2, §3, §4
Defining this mechanism of cell death is important as necrosis can cause various side-effects including septic shock and kidney failure that can obviously compromise patient health.

HeLa cells [1] = test: Fluorescence microscopy, propidium iodide uptake and annexin V staining; type: cell-based; conditions: 50 μM; for annexin V staining: 12 hours; for PI staining / uptake: 24 hours
Method: Cells were plated at 75,000-125,000/ml for 24 hours. […] Alexa fluro 488 Annexin V and Propidium Iodide were added to each well and images were taken on Leica CTR 6500 microscope using green (480/40 nm) and red (560/40 nm) excitation band pass filters.

HeLa cells [2] = test: Measurements of apoptosis, dual parameter FACS with PI and annexin V; type: cell-based; conditions: 50 μM
Method: Cells were plated at 200,000/ml, Au(I)-Indole analogs were added in a dose-dependent fashion for 12-24 hr. Cells were trypsinized and then washed with cold PBS. After discarding the supernatant, a 100 μL solution containing 1× annexin-binding buffer, 5 μl of alexa fluor 488 Annexin V and 1 μg/ml of PI solution was added to each sample. The cells were incubated at room temperature for 15 min. After this incubation period, an additional 400 μl of 1× annexin-binding buffer was added. Cells were analyzed using a band pass filters with wavelengths of 525/40 nm and 620/30 nm with a Beckman Coulter XL flow cytometer.

HeLa cells [3] = conditions: for fold more sensitive to IR exposure than cells treated with IR alone: HeLa pre-treated 24 hour with compound 3 (4 μM) or compound 4 (7 μM)
Method: HeLa cells were plated at a density of 250,000-300,000 cells/mL. After 24 hr cells, the cells were irradiated in a dose dependent manner (0-4 Gy) using a ^137Cs gamma source. After treatment, the cells were trypsinized and plated at a density between 300-4000 cells in 60 mm dishes. Cells were allowed to grow colonies (1 colony≧50 cells) for 10-14 days, stained with 0.25% crystal violet, and manually counted to measure the number of colonies. Survival fractions were normalized against positive controls (colony formation with no radiation) and plotted as the log percent survival versus dose of radiation. Each experiment was performed an average of four (4) times with cells propagated on several different days.
In this case, we measured the effects of combining these (phosphine)gold(I) indoles with ionizing radiation (IR), a widely used therapy used to treat solid tumors. […] After this time frame, media containing the (phosphine)gold(I) indole was removed and replaced with fresh media. The cells were then irradiated in a dose-dependent fashion from 0 to 6 Gy. Cell viability was assessed using a clonogenic assay that measures colony formation and thus accurately defines the cytotoxic effects of IR exposure. […] The initial linear phase is particularly important as this reflects repair of non-lethal damage inflicted by clinically-relevant doses of IR (˜2 Gy).

AMPK-α1 = molecular target: T1, AMPK-α1 (Homo sapiens, UniProt Q13131); test: Kinase inhibition screening (Luceome); type: biochemical; conditions: 10 μM
T1 construct: purchased Luceome Biotechnologies (Tucson, Ariz.)
T1 sequence (Q13131 whole entry): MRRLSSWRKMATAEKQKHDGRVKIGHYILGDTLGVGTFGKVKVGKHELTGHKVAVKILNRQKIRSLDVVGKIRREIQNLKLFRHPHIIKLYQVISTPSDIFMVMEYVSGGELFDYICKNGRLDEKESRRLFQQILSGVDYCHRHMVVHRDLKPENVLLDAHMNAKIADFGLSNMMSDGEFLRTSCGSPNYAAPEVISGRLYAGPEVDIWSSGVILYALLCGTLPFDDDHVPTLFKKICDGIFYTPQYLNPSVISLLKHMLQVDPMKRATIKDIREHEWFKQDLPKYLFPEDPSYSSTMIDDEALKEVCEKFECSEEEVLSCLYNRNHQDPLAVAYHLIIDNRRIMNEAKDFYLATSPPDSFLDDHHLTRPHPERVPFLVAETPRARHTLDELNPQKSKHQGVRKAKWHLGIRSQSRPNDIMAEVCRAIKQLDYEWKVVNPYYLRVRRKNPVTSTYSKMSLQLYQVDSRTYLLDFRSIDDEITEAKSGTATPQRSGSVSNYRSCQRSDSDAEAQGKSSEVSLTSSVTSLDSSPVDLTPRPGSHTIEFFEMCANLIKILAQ
Excerpt: (§5) It is well established that dysfunctional and unregulated kinase activity plays significant roles in cancer initiation and progression. […] Inspection of the data provides several interesting observations. […] These inhibitory effects at this concentration are consistent with their measured IC50 values that are also in the μM range (Table 1). In addition, several kinases display overlapping inhibitory responses to both gold(I) compounds. Many of these are of particular interest since they are involved in cancer initiation and/or progression. For example, the Aurora kinase family members, Aurora A and Aurora B, as well as the MARK2 and MARK3 kinases function during mitosis to regulate cell division. These kinases are important therapeutic targets as their activities are often deregulated in many types of cancers. Other kinases such as RPS6KA3 and MLK3 are involved in the MAP kinase and JNK pathways which are also important in cancer progression.

P38-γ = molecular target: T2, P38-γ (Homo sapiens, UniProt P53778); test: Kinase inhibition screening (Luceome); type: biochemical; conditions: 10 μM
T2 construct: purchased Luceome Biotechnologies (Tucson, Ariz.)
T2 sequence (P53778 whole entry): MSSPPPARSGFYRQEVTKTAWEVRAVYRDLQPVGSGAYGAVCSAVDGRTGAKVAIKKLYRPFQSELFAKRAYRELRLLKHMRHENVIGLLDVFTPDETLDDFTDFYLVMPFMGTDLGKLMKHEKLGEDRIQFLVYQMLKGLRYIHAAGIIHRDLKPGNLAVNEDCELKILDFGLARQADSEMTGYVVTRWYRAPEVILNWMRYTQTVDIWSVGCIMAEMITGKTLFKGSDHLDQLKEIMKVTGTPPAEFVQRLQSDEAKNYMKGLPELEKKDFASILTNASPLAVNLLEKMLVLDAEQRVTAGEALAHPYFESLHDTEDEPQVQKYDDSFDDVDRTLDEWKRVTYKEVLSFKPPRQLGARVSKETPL
Excerpt: as §5

SNARK = molecular target: T3, SNARK (Homo sapiens, UniProt Q9H093); test: Kinase inhibition screening (Luceome); type: biochemical; conditions: 10 μM
T3 construct: purchased Luceome Biotechnologies (Tucson, Ariz.)
T3 sequence (Q9H093 whole entry): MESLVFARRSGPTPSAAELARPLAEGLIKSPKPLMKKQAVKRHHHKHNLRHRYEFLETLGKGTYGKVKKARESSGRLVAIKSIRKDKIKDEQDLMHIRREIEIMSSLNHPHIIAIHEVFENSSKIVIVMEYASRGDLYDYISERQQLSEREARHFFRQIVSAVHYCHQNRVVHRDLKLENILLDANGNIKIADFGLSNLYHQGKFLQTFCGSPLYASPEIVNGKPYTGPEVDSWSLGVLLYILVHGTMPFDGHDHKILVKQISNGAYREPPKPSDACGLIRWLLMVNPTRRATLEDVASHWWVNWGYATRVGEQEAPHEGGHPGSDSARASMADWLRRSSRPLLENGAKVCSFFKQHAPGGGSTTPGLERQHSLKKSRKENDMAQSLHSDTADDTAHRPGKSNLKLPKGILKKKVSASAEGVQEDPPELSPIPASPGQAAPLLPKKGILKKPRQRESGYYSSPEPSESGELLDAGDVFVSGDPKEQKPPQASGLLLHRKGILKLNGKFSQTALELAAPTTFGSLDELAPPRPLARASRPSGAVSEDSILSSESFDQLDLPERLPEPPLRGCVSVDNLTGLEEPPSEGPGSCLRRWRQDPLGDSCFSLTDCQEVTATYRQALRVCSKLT
Excerpt: as §5

TNK2 = molecular target: T4, TNK2 (Homo sapiens, UniProt Q07912); test: Kinase inhibition screening (Luceome); type: biochemical; conditions: 10 μM
T4 construct: purchased Luceome Biotechnologies (Tucson, Ariz.)
T4 sequence (Q07912 whole entry): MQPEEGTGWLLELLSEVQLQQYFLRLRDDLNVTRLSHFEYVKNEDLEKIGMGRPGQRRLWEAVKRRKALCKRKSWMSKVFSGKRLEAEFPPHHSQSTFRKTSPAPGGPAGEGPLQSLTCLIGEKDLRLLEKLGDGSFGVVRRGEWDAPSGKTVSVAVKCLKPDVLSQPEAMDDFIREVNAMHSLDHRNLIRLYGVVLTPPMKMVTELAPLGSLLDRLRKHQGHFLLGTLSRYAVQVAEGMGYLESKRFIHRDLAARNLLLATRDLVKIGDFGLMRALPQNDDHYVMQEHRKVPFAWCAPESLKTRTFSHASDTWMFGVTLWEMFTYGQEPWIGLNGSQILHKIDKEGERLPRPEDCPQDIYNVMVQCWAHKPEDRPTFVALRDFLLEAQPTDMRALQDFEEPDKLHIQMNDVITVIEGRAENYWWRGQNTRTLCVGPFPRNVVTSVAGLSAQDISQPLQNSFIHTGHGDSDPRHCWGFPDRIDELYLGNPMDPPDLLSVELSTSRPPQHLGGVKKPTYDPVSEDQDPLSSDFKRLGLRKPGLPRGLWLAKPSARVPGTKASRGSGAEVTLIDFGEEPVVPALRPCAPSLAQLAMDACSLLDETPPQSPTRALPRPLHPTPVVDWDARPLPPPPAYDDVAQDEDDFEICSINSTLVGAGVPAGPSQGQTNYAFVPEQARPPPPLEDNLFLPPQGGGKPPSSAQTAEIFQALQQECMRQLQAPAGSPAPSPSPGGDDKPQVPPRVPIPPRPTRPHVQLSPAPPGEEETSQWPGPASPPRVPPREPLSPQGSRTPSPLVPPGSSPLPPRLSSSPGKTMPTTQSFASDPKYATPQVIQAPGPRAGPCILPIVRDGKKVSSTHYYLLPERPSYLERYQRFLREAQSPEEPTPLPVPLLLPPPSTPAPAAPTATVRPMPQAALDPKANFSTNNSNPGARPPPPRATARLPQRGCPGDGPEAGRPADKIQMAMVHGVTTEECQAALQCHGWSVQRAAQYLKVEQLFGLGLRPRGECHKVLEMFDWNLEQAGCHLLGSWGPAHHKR
Excerpt: as §5

γH2AX foci in HeLa cells = conditions: 2 Gy IR, compound 4 7 μM; for number of γH2AX foci 30 minutes post IR exposure: compound 3 4 μM
Method: HeLa cells were plated at a density of 40,000 cells/ml in 24-well glass bottom plate for 24 hr. After this time, cells were treated with Au(I)indole compounds at desired concentration for an additional 24 hr. The cells were irradiated at 2 Gys. Cells were fixed with 4% paraformaldehyde for 15 min at 37° C. at time points corresponding to 0.5, 1, 2, and 4 hrs. Cells were washed with 1×PBS and permeabilized in 0.2% Triton X-100 for 15 min at 37° C. […] Mouse monoclonal anti-phospho-histone H2AX antibody (Millipore) was applied (1:500 dilution) to each well for one hour. After washing several times with blocking buffer, a 1:500 dilution of goat anti-mouse secondary antibody conjugated with Alexa 647 (Invitrogen) was added for 1 hr. The wells were then washed several times, and the number of γH2AX foci per nuclei was measured using an iCyte laser scanning cytometer with a red long pass filter (650 nm). To collect accurate data, a threshold was set to minimize noise produced by unrelated events using iNovator software (version 3.4.2.52). Each well was scanned using a 40× magnification with 0.25 μm× step and a field size of 250×186 μm (1000×768 pixels). Data were plotted as the percentage of cells as a function of foci number. The resulting histogram was fit to the equation for a Gaussian distribution (Equation 2). Y=1/(2πσ^2)^1/2e^−[(χ−m)2/2σ2] (2)
where Y is the percentage of cells, μ is the mean, and σ is the variance used to define the width of the mean.

Row | Structure (SMILES) | IC50 (HCT-116) [µM] | IC50 (HeLa) [µM] | IC50 (MCF-7) [µM] | IC50 (CEM-C7) [µM] | annexin V staining (HeLa cells [1]) | PI staining / uptake (HeLa cells [1]) | Early Apoptotic (%) (HeLa cells [2]; HeLa, 24 hours) | Late Apoptotic (%) (HeLa cells [2]; HeLa, 24 hours) | Live (%) (HeLa cells [2]; HeLa, 24 hours) | Necrotic (%) (HeLa cells [2]; HeLa, 24 hours) | fold more sensitive to IR exposure than cells treated with IR alone (HeLa cells [3]) [fold] | % Inhibition AMPK-α1 (AMPK-α1) [%] | % Inhibition P38-γ (P38-γ) [%] | % Inhibition SNARK (SNARK) [%] | % Inhibition TNK2 (TNK2) [%] | number of γH2AX foci 30 minutes post IR exposure (γH2AX foci in HeLa cells) | other results
1 | CC(C)(C)OC(=O)n1ccc2c[c]([Au-][P+](c3ccccc3)(c3ccccc3)c3ccccc3)ccc21 [Compound 3, 5-{Triphenylphosphine aurate(I)}-tert-butyl1H-indole-1-carboxylate] | 11.5 | 2.5 | 16.2 | 19.9 | induce early stage apoptosis | significant PI uptake is not observed | 8.8% and 8.8 +/− 0.7% | 4.3% and 4.3 +/− 1.8% | 84.4 +/− 3.0% | 2.4 +/− 0.8% | ~4 | 0 | 0 | 0 | 0 | lower numbers of γH2AX foci | fold increase in early stage apoptosis compared to DMSO (HeLa cells [2]; 24 hours): 6 fold; fold increase in late stage apoptosis compared to DMSO (HeLa cells [2]; 24 hours): ~10 fold; dose-modifying factor (HeLa cells [3]; ionizing radiation, HeLa): 4
2 | CC(C)(C)OC(=O)n1ccc2c[c]([Au-][P+](C3CCCCC3)(C3CCCCC3)C3CCCCC3)ccc21 [Compound 4, 5-{Tricyclohexylphosphine aurate(I)}-tert-butyl1H-indole-1-carboxylate] | 22.8 | 16.2 | 34.4 | 9.7 | induce early stage apoptosis | more intense PI staining | 5.3% and 5.3 +/− 1.1% | 8.1% and 8.1 +/− 1.8% | 68.4 +/− 0.8% | 18.8 +/− 2.5% | ~4 | 0 | 0 | 39.5 | 2.2 | increase in the number of γH2AX foci | fold higher amount of late-stage apoptotic cells compared to compound 3 (HeLa cells [2]; HeLa): 2 fold; fold higher amount of necrosis compared to compound 3 (HeLa cells [2]; HeLa): ~9 fold; γH2AX foci 4 hours after IR exposure (γH2AX foci in HeLa cells): a significant number of γH2AX foci persist
